Values quoted from earlier work as cited in patent publication EP0388817A2, “Use of mixed micelles and mixed micelle solutions of immunomodulators” (F. Hoffmann-La Roche AG, priority 1989, dated 1990).

details: octanol/water

Substance	Verteilungskoeffizient in Octanol/Wasser
Vitamin A	> 10^6
Vitamin E	> 10^6
Vitamin K	> 10^6
